This data set in a line: Half life measured in vitro for its stability in human blood. Type of data set: ADME, tissue-based.
Take `CCOc1cccc2c1C(=O)N(COC(=O)c1c(Cl)cccc1Cl)S2(=O)=O`: the half-life (as a rule, the time in which the quantity being followed falls by half) worked out at 10 min. Next, `CCOc1cc(OCC)c2c(c1)S(=O)(=O)N(COC(=O)c1c(Cl)cccc1Cl)C2=O`: 98 min; `COc1cc(OC)c2c(c1)S(=O)(=O)N(COC(=O)c1c(Cl)cccc1Cl)C2=O`: 30 min. With `COc1ccc2c(c1)S(=O)(=O)N(COC(=O)c1c(Cl)cccc1Cl)C2=O`, the half-life was 5 min.

These data come from ChEMBL document CHEMBL1128630, “Alkoxy substituted benzisothiazolone (BIT) derivatives: potent inhibitors of human leukocyte elastase” (Bioorg Med Chem Lett, 1995).
